Laboratory results from patent US7772183B2 (Bristol-Myers Squibb Company, priority 2005, dated 2010).

Legend:
[1] = tested on: HCV replicon in HUH-7 cells; assay: HCV replicon FRET assay; type: cell-based, Hepatitis C virus (strain 1b); conditions: Hepatitis C virus, Huh-7; HCV replicon, for compounds tested; read-out: EC50 Range
Text: An HCV replicon whole cell system was established as described by Lohmann V, Komer F, Koch J, Herian U, Theilmann L, Bartenschlager R., Science 285(5424):110-3 (1999). This system enabled us to evaluate the effects of our HCV Protease compounds on HCV RNA replication. Briefly, using the HCV strain 1b sequence described in the Lohmann paper (Assession number: AJ238799), an HCV cDNA was synthesized by Operon Technologies, Inc. (Alameda, Calif.), and the full-length replicon was then assembled in plasmid pGem9zf(+) (Promega, Madison, Wis.) using standard molecular biology techniques. The replicon consists of (i) the HCV 5′ UTR fused to the first 12 amino acids of the capsid protein, (ii) the neomycin phosphotransferase gene (neo), (iii) the IRES from encephalomyocarditis virus (EMCV), and (iv) HCV NS3 to NS5B genes and the HCV 3′ UTR. Plasmid DNAs were linearized with Scal and RNA transcripts were synthesized in vitro using the T7 MegaScript transcription kit (Ambion, Austin, Tex.) according to manufacturer's directions. In vitro transcripts of the cDNA were transfected into the human hepatoma cell line, HUH-7. […] Resulting cell lines were characterized for positive and negative strand RNA production and protein production over time.
The HCV replicon FRET assay was developed to monitor the inhibitory effects of compounds described in the disclosure on HCV viral replication. HUH-7 cells, constitutively expressing the HCV replicon, were grown in Dulbecco's Modified Eagle Media (DMEM) (Gibco-BRL) containing 10% Fetal calf serum (FCS) (Sigma) and 1 mg/ml G418 (Gibco-BRL). Cells were seeded the night before (1.5×10^4 cells/well) in 96-well tissue-culture sterile plates. Compound and no compound controls were prepared in DMEM containing 4% FCS, 1:100 Penicillin/Streptomysin (Gibco-BRL), 1:100 L-glutamine and 5% DMSO in the dilution plate (0.5% DMSO final concentration in the assay). Compound/DMSO mixes were added to the cells and incubated for 4 days at 37° C. After 4 days, cells were first assessed for cytotoxicity using alamar Blue (Trek Diagnotstic Systems) for a CC50 reading. The toxicity of compound (CC50) was determined by adding 1/10th volume of alamar Blue to the media incubating the cells. After 4 hours, the fluorescence signal from each well was read, with an excitation wavelength at 530 nm and an emission wavelength of 580 nm, using the Cytofluor Series 4000 (Perspective Biosystems). Plates were then rinsed thoroughly with Phosphate-Buffered Saline (PBS) (3 times 150 μl). The cells were lysed with 25 μl of a lysis assay reagent containing an HCV protease substrate (5× cell Luciferase cell culture lysis reagent (Promega #E153A) diluted to 1× with distilled water, NaCl added to 150 mM final, the FRET peptide substrate (as described for the enzyme assay above) diluted to 10 μM final from a 2 mM stock in 100% DMSO. […]. The plate was then placed into the Cytofluor 4000 instrument which had been set to 340 nm excitation/490 nm emission, automatic mode for 21 cycles and the plate read in a kinetic mode. EC50 determinations were carried out as described for the IC50 determinations.

[2] = target: T1, HCV NS3/4A protease complex, BMS strain (UniProt P27958, species not given/STRAIN_BMS); assay: FRET peptide assay to monitor HCV NS3/4A proteolytic activity (BMS strain); type: biochemical, Hepatitis C virus (genotype 1a); conditions: NS3/4A BMS strain; read-out: IC50 Range
T1 construct: said of H77 and J4L6S; fused on or other part: A three-lysine solubilising tail at the C-terminus of NS4A and a His tag (pET21b, Ni-NTA purification)
T1 sequence (P27958 1027-1657, change not shown, one chain of several): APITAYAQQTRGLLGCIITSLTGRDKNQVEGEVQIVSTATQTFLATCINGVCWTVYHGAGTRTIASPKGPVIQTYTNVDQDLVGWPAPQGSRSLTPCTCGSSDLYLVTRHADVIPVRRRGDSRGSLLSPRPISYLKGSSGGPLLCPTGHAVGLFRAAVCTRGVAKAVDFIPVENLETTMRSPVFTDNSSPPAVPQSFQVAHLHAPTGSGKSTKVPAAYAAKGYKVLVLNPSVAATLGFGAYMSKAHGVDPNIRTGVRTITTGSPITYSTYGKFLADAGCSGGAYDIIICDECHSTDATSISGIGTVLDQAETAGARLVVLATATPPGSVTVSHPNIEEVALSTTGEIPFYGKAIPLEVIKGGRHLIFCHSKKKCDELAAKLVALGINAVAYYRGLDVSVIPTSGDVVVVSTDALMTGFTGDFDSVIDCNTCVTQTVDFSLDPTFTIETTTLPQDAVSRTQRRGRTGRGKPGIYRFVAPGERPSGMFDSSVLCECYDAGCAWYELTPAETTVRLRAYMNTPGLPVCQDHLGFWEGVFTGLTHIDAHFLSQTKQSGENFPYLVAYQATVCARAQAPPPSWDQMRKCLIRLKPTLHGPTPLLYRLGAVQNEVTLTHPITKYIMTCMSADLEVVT
Text: HCV NS3 protease complexes, derived from the BMS strain, H77 strain or J4L6S strain, were generated, as described below. These purified recombinant proteins were generated for use in a homogeneous assay (see below) to provide an indication of how effective compounds of the present disclosure would be in inhibiting HCV NS3 proteolytic activity.
Serum from an HCV-infected patient was obtained from Dr. T. Wright, San Francisco Hospital. An engineered full-length cDNA (compliment deoxyribonucleic acid) template of the HCV genome (BMS strain) was constructed from DNA fragments obtained by reverse transcription-PCR (RT-PCR) of serum RNA (ribonucleic acid) and using primers selected on the basis of homology between other genotype 1a strains. From the determination of the entire genome sequence, a genotype 1a was assigned to the HCV isolate according to the classification of Simmonds et al. (See P Simmonds, K A Rose, S Graham, S W Chan, F McOmish, B C Dow, E A Follett, P L Yap and H Marsden, J. Clin. Microbiol., 31(6), 1493-1503 (1993)). […] The infectious clones, H77 (1a genotype) and J4L6S (1b genotype) were obtained from R. Purcell (NIH) and the sequences are published in Genbank (AAB67036, see Yanagi, M., Purcell, R. H., Emerson, S. U. and Bukh, J. Proc. Natl. Acad. Sci. U.S.A. 94(16), 8738-8743 (1997); AF054247, see Yanagi, M., St Claire, M., Shapiro, M., Emerson, S. U., Purcell, R. H. and Bukh, J, Virology 244 (1), 161-172. (1998)).
The H77 and J4L6S strains were used for production of recombinant NS3/4A protease complexes. DNA encoding the recombinant HCV NS3/4A protease complex (amino acids 1027 to 1711) for these strains were manipulated as described by P. Gallinari et al. (see Gallinari P, Paolini C, Brennan D, Nardi C, Steinkuhler C, De Francesco R. Biochemistry. 38(17):5620-32, (1999)). Briefly, a three-lysine solubilizing tail was added at the 3′-end of the NS4A coding region. The cysteine in the P1 position of the NS4A-NS4B cleavage site (amino acid 1711) was changed to a glycine to avoid the proteolytic cleavage of the lysine tag. Furthermore, a cysteine to serine mutation was introduced by PCR at amino acid position 1454 to prevent the autolytic cleavage in the NS3 helicase domain. The variant DNA fragment was cloned in the pET21b bacterial expression vector (Novagen) and the NS3/4A complex was expressed in Escherichia coli strain BL21 (DE3) (Invitrogen) following the protocol described by P. Gallinari et al. (see Gallinari P, Brennan D, Nardi C, Brunetti M, Tomei L, Steinkuhler C, De Francesco R., J Virol. 72(8):6758-69 (1998)) with modifications. Briefly, the NS3/4A protease complex expression was induced with 0.5 mM Isopropyl β-D-1-thiogalactopyranoside (IPTG) for 22 hours (h) at 20° C. A typical fermentation (1 Liter (L)) yielded approximately 10 grams (g) of wet cell paste. The cells were resuspended in lysis buffer (10 mL/g) consisting of 25 mM N-(2-Hydroxyethyl)Piperazine-N′-(2-Ethane Sulfonic acid) (HEPES), pH 7.5, 20% glycerol, 500 mM Sodium Chloride (NaCl), 0.5% Triton X-100, 1 microgram/milliliter (“μg/mL”) lysozyme, 5 mM Magnesium Chloride (MgCl2), 1 μg/ml Dnasel, 5 mM β-Mercaptoethanol (βME), Protease inhibitor-Ethylenediamine Tetraacetic acid (EDTA) free (Roche), homogenized and incubated for 20 minutes (min) at 4° C. The homogenate was sonicated and clarified by ultra-centrifugation at 235000 g for 1 h at 4° C. Imidazole was added to the supernatant to a final concentration of 15 mM and the pH adjusted to 8.0. The crude protein extract was loaded on a Nickel-Nitrilotriacetic acid (Ni-NTA) column pre-equilibrated with buffer B (25 mM HEPES, pH 8.0, 20% glycerol, 500 mM NaCl, 0.5% Triton X-100, 15 mM imidazole, 5 mM βME). The sample was loaded at a flow rate of 1 mL/min. The column was washed with 15 column volumes of buffer C (same as buffer B except with 0.2% Triton X-100). The protein was eluted with 5 column volumes of buffer D (same as buffer C except with 200 mM Imidazole). […]

Structure (SMILES) | melting point [°C] | EC50 [1] [nM] | IC50 [2] [nM]
CC(C)(C)OC(=O)N[C@H]1COCCC/C=C\[C@@H]2C[C@@]2(C(=O)NS(=O)(=O)C2CC2)NC(=O)[C@@H]2C[C@@H](OC(=O)c3cccc(Oc4ccccc4)c3)CN2C1=O [Compound 13, 18-(3-phenoxybenzoyloxy)-14-tert-butoxycarbonylamino-4-cyclopropylsulfonylaminocarbonyl-2,15-dioxo-3,16-diaza-12-oxatricyclo-[14.3.0.0^4,6]-nonadec-7-ene] | 123 to 125 | 100 to 1000 | < 100
CC(C)(C)OC(=O)N[C@H]1COCCC/C=C\[C@@H]2C[C@@]2(C(=O)NS(=O)(=O)C2CC2)NC(=O)[C@@H]2C[C@@H](OC(=O)c3ccc(Oc4ccccc4)cc3)CN2C1=O [Compound 14, 18-(4-phenoxybenzoyloxy)-14-tert-butoxycarbonylamino-4-cyclopropylsulfonylaminocarbonyl-2,15-dioxo-3,16-diaza-12-oxatricyclo-[14.3.0.0^4,6]-nonadec-7-ene] | 207 to 209 | 100 to 1000 | 100 to 1000
CC(C)(C)OC(=O)N[C@H]1CCCCC/C=C\[C@@H]2C[C@@]2(C(=O)NS(=O)(=O)C2CC2)NC(=O)[C@@H]2C[C@@H](OC(=O)c3ccccc3)CN2C1=O [Compound 15, 18-benzoyloxy-14-tert-butoxycarbonylamino-4-cyclopropylsulfonylaminocarbonyl-2,15-dioxo-3,16-diazatricyclo-[14.3.0.0^4,6]-nonadec-7-ene] | 140 to 142 | < 100 | < 100
CC(C)(C)OC(=O)N[C@H]1CCCCC/C=C\[C@@H]2C[C@@]2(C(=O)NS(=O)(=O)C2CC2)NC(=O)[C@@H]2C[C@@H](OC(=O)c3ccc4c(c3)OCO4)CN2C1=O [Compound 16, 18-(3,4-methylenedioxybenzoyloxy)-14-tert-butoxycarbonylamino-4-cyclopropylsulfonylaminocarbonyl-2,15-dioxo-3,16-diazatricyclo-[14.3.0.0^4,6]-nonadec-7-ene] | 153 to 155 | < 100 | < 100
CC(C)(C)OC(=O)N[C@H]1CCCCC/C=C\[C@@H]2C[C@@]2(C(=O)NS(=O)(=O)C2CC2)NC(=O)[C@@H]2C[C@@H](OC(=O)c3cccc(OC(F)(F)F)c3)CN2C1=O [Compound 17, 18-[(3-trifluoromethoxy)benzoyloxy]-14-tert-butoxycarbonylamino-4-cyclopropylsulfonylaminocarbonyl-2,15-dioxo-3,16-diazatricyclo-[14.3.0.0^4,6]-nonadec-7-ene] | 132 to 134 | < 100 | < 100
CC(C)(C)OC(=O)N[C@H]1CCCCC/C=C\[C@@H]2C[C@@]2(C(=O)NS(=O)(=O)C2CC2)NC(=O)[C@@H]2C[C@@H](OC(=O)c3ccc4ccccc4c3)CN2C1=O [Compound 18, 18-(2-naphthoyloxy)-14-tert-butoxycarbonylamino-4-cyclopropylsulfonylaminocarbonyl-2,15-dioxo-3,16-diazatricyclo-[14.3.0.0^4,6]-nonadec-7-ene] | 156 to 158 | < 100 | < 100
CC(C)(C)OC(=O)N[C@H]1CCCCC/C=C\[C@@H]2C[C@@]2(C(=O)NS(=O)(=O)C2CC2)NC(=O)[C@@H]2C[C@@H](OC(=O)c3ccc(-c4ccccc4)cc3)CN2C1=O [Compound 19, 18-(4-biphenylcarbonyloxy)-14-tert-butoxycarbonylamino-4-cyclopropylsulfonylaminocarbonyl-2,15-dioxo-3,16-diazatricyclo-[14.3.0.0^4,6]-nonadec-7-ene] | 162 to 164 | < 100 | < 100
COc1ccc(C(=O)O[C@@H]2C[C@H]3C(=O)N[C@]4(C(=O)NS(=O)(=O)C5CC5)C[C@H]4/C=C\CCCCC[C@H](NC(=O)OC(C)(C)C)C(=O)N3C2)cc1 [Compound 20, 18-(4-methoxybenzoyloxy)-14-tert-butoxycarbonylamino-4-cyclopropylsulfonylaminocarbonyl-2,15-dioxo-3,16-diazatricyclo-[14.3.0.0^4,6]-nonadec-7-ene] | 151 to 153 | < 100 | < 100
CC(C)(C)OC(=O)N[C@H]1CCCCC/C=C\[C@@H]2C[C@@]2(C(=O)NS(=O)(=O)C2CC2)NC(=O)[C@@H]2C[C@@H](OC(=O)c3ccc(Cl)cc3)CN2C1=O [Compound 21, 18-(4-chlorobenzoyloxy)-14-tert-butoxycarbonylamino-4-cyclopropylsulfonylaminocarbonyl-2,15-dioxo-3,16-diazatricyclo-[14.3.0.0^4,6]-nonadec-7-ene] | 143 to 145 | < 100 | < 100
